Laboratory results from patent US20230104936A1, “TRPML MODULATORS” (Casma Therapeutics, Inc., priority 2019, published 2023).

What follows are compounds tested on TFEB (assay: TFEB nuclear translocation assay, HeLa wt cells). Conditions: Homo sapiens, HeLa, 2 h, 2 hrs compound treatment, Table 1 does not say HeLa wt or TRPML1 KO.
Type: cell-based
In short: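 TFEB translocation into the nucleus of HeLa wt cells is scored by high-content immunofluorescence after 2 hrs of compound treatment at 37° C, reported as AC50.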

First: CS(=O)(=O)c1ccc(S(=O)(=O)Nc2ccccc2N2CCC(O)(c3ccc(F)cc3)CC2)cc1 [Compound A-203, N-{2-[4-(4-fluorophenyl)-4-hydroxypiperidin-1-yl]phenyl}-4-methanesulfonylbenzene-1-sulfonamide]
Second: CN(C)S(=O)(=O)c1ccc(S(=O)(=O)Nc2ccccc2N2CCC(O)(c3ccc(F)cn3)CC2)cc1 [Compound A-209, N4-{2-[4-(5-fluoropyridin-2-yl)-4-hydroxypiperidin-1-yl]phenyl}-N1,N1-dimethylbenzene-1,4-disulfonamide]
The AC50 of the first is higher: 2010 to 8000 nM for the first, no more than 2000 nM for the second.

CN(C)S(=O)(=O)c1ccc(S(=O)(=O)Nc2ccccc2N2CCC(C)(c3ccc(Cl)cc3F)CC2)cc1 [Compound A-204, N4-{2-[4-(4-chloro-2-fluorophenyl)-4-methylpiperidin-1-yl]phenyl}-N1,N1-dimethylbenzene-1,4-disulfonamide] and CN(C)S(=O)(=O)c1ccc(S(=O)(=O)Nc2ccccc2N2CCC(C)(c3ccc(F)cc3Cl)CC2)cc1 [Compound A-205, N4-{2-[4-(2-chloro-4-fluorophenyl)-4-methylpiperidin-1-yl]phenyl}-N1,N1-dimethylbenzene-1,4-disulfonamide] cannot be ordered by AC50: no more than 2000 nM for the first, no more than 2000 nM for the second.

COc1ccc(S(=O)(=O)Nc2cnncc2N2CCC(c3ncc(F)cc3F)CC2)cc1 [Compound A-206, N-{5-[4-(3,5-difluoropyridin-2-yl)piperidin-1-yl]pyridazin-4-yl}-4-methoxybenzene-1-sulfonamide] and COc1ccc(S(=O)(=O)Nc2ccccc2N2CC(Cc3ccc(F)cc3F)C2)cc1 [Compound A-219, N-(2-{3-[(2,4-difluorophenyl)methyl]azetidin-1-yl}phenyl)-4-methoxybenzene-1-sulfonamide] cannot be ordered by AC50: no less than 10000 nM for the first, no less than 10000 nM for the second.

COCS(=O)(=O)c1ccc(S(=O)(=O)Nc2ccccc2N2CCC(c3c(F)cccc3F)CC2)cc1 [Compound A-207, N-{2-[4-(2,6-difluorophenyl)piperidin-1-yl]phenyl}-4-methoxymethanesulfonylbenzene-1-sulfonamide] and CC(C)(C)S(=O)(=O)c1ccc(S(=O)(=O)Nc2ccccc2N2CCC(c3c(F)cccc3F)CC2)cc1 [Compound A-213, N-{2-[4-(2,6-difluorophenyl)piperidin-1-yl]phenyl}-4-(2-methylpropane-2-sulfonyl)benzene-1-sulfonamide] cannot be ordered by AC50: no more than 2000 nM for the first, no more than 2000 nM for the second.

CN(C)S(=O)(=O)c1ccc(S(=O)(=O)Nc2ccccc2N2CCC(O)(c3cc(Br)ncc3F)CC2)cc1 [Compound A-210, N4-{2-[4-(2-bromo-5-fluoropyridin-4-yl)-4-hydroxypiperidin-1-yl]phenyl}-N1,N1-dimethylbenzene-1,4-disulfonamide] and CNC1(c2ccc(Cl)cc2F)CCN(c2ccccc2NS(=O)(=O)c2ccc(S(=O)(=O)N(C)C)cc2)CC1 [Compound A-212, N4-{2-[4-(4-chloro-2-fluorophenyl)-4-(methylamino)piperidin-1-yl]phenyl}-N1,N1-dimethylbenzene-1,4-disulfonamide] cannot be ordered by AC50: no more than 2000 nM for the first, no more than 2000 nM for the second.

CN(C)C1(c2ccc(Cl)cc2F)CCN(c2ccccc2NS(=O)(=O)c2ccc(S(=O)(=O)N(C)C)cc2)CC1 [Compound A-211, N4-{2-[4-(4-chloro-2-fluorophenyl)-4-(dimethylamino)piperidin-1-yl]phenyl}-N1,N1-dimethylbenzene-1,4-disulfonamide] and CN(C)CC1(c2ccc(F)cc2F)CCN(c2ccccc2NS(=O)(=O)c2ccc(S(=O)(=O)N(C)C)cc2)CC1 [Compound A-221, N4-{2-[4-(2,4-difluorophenyl)-4-[(dimethylamino)methyl]piperidin-1-yl]phenyl}-N1,N1-dimethylbenzene-1,4-disulfonamide] cannot be ordered by AC50: no more than 2000 nM for the first, no more than 2000 nM for the second.

CN(C)S(=O)(=O)c1ccc(S(=O)(=O)Cc2ccccc2N2CCC(c3ccc(Cl)cc3F)CC2)cc1 [Compound A-214, 4-((2-(4-(4-chloro-2-fluorophenyl)piperidin-1-yl)benzyl)sulfonyl)-N,N-dimethylbenzenesulfonamide] and CN(C)S(=O)(=O)c1ccc(S(=O)(=O)Cc2ccccc2N2CCC(c3c(F)cccc3F)CC2)cc1 [Compound A-229, 4-((2-(4-(2,6-difluorophenyl)piperidin-1-yl)benzyl)sulfonyl)-N,N-dimethylbenzenesulfonamide] cannot be ordered by AC50: no more than 2000 nM for the first, no more than 2000 nM for the second.

CN1CC2(CCN(c3ccccc3NS(=O)(=O)c3ccc(S(=O)(=O)N(C)C)cc3)CC2)c2ccc(F)cc21 [Compound A-215, N4-(2-{6-fluoro-1-methyl-1,2-dihydrospiro[indole-3,4′-piperidin]-1′-yl}phenyl)-N1,N1-dimethylbenzene-1,4-disulfonamide] and CN1CC2(CCN(c3ccccc3N(C)S(=O)(=O)c3ccc(S(=O)(=O)N(C)C)cc3)CC2)c2ccc(F)cc21 [Compound A-243, N1-(2-{6-fluoro-1-methyl-1,2-dihydrospiro[indole-3,4′-piperidin]-1′-yl}phenyl)-N1,N4,N4-trimethylbenzene-1,4-disulfonamide] cannot be ordered by AC50: no more than 2000 nM for the first, no more than 2000 nM for the second.

CNC(=O)C1(c2ccc(F)cc2F)CCN(c2ccccc2NS(=O)(=O)c2ccc(S(=O)(=O)N(C)C)cc2)CC1 [Compound A-216, 4-(2,4-difluorophenyl)-1-{2-[4-(dimethylsulfamoyl)benzenesulfonamido]phenyl}-N-methylpiperidine-4-carboxamide] and CNCC1(c2ccc(F)cc2F)CCN(c2ccccc2NS(=O)(=O)c2ccc(S(=O)(=O)N(C)C)cc2)CC1 [Compound A-218, N4-{2-[4-(2,4-difluorophenyl)-4-[(methylamino)methyl]piperidin-1-yl]phenyl}-N1,N1-dimethylbenzene-1,4-disulfonamide] cannot be ordered by AC50: no more than 2000 nM for the first, no more than 2000 nM for the second.

Compared with O=S(=O)(Nc1ccccc1N1CCC(c2c(F)cccc2F)CC1)c1ccc(S(=O)(=O)N2CCOCC2)cc1 [Compound A-217, N-{2-[4-(2,6-difluorophenyl)piperidin-1-yl]phenyl}-4-(morpholine-4-sulfonyl)benzene-1-sulfonamide], CN1CCN(S(=O)(=O)c2ccc(S(=O)(=O)Nc3ccccc3N3CCC(c4c(F)cccc4F)CC3)cc2)CC1 [Compound A-220, N-{2-[4-(2,6-difluorophenyl)piperidin-1-yl]phenyl}-4-[(4-methylpiperazin-1-yl)sulfonyl]benzene-1-sulfonamide] is higher in AC50: no more than 2000 nM for the first, no less than 10000 nM for the second.

Going from CN(C)C(c1ccc(S(=O)(=O)Nc2ccccc2N2CCC(c3ccc(Cl)cc3F)CC2)cc1)C(F)(F)F (centres unmarked) [Compound A-222, N-{2-[4-(4-chloro-2-fluorophenyl)piperidin-1-yl]phenyl}-4-[1-(dimethylamino)-2,2,2-trifluoroethyl]benzene-1-sulfonamide] to CN(C)S(=O)(=O)c1ccc(NC(c2ccccc2N2CCC(c3ccc(Cl)cc3F)CC2)C(F)(F)F)cc1 (centres unmarked) [Compound A-241, 4-((1-(2-(4-(4-chloro-2-fluorophenyl)piperidin-1-yl)phenyl)-2,2,2-trifluoroethyl)amino)-N,N-dimethylbenzenesulfonamide], the AC50 rises from no more than 2000 nM to no less than 10000 nM.

Compared with CN(CCO)S(=O)(=O)c1ccc(S(=O)(=O)Nc2ccccc2N2CCC(c3c(F)cccc3F)CC2)cc1 [Compound A-223, N4-{2-[4-(2,6-difluorophenyl)piperidin-1-yl]phenyl}-N1-(2-hydroxyethyl)-N1-methylbenzene-1,4-disulfonamide], CN(CC(C)(C)O)S(=O)(=O)c1ccc(S(=O)(=O)Nc2ccccc2N2CCC(c3c(F)cccc3F)CC2)cc1 [Compound A-224, N4-{2-[4-(2,6-difluorophenyl)piperidin-1-yl]phenyl}-N1-(2-hydroxy-2-methylpropyl)-N1-methylbenzene-1,4-disulfonamide] is higher in AC50: 2010 to 8000 nM for the first, no less than 10000 nM for the second.

Compared with CN(C)S(=O)(=O)c1ccc(S(=O)(=O)Nc2ccccc2N2CCN(C(=O)C(C)(C)C)CC2)cc1 [Compound A-225, N4-{2-[4-(2,2-dimethylpropanoyl)piperazin-1-yl]phenyl}-N1,N1-dimethylbenzene-1,4-disulfonamide], CN1CCC2(CCN(c3ccccc3NS(=O)(=O)c3ccc(S(=O)(=O)N(C)C)cc3)CC2)C1=O [Compound A-244, N1,N1-dimethyl-N4-(2-{2-methyl-1-oxo-2,8-diazaspiro[4.5]decan-8-yl}phenyl)benzene-1,4-disulfonamide] is higher in AC50: 2010 to 8000 nM for the first, no less than 10000 nM for the second.

CN(C)S(=N)(=O)c1ccc(S(=O)(=O)Nc2ccc(F)cc2N2CCC(c3c(F)cccc3F)CC2)cc1 (centres unmarked) [Compound A-226, 4-({2-[4-(2,6-difluorophenyl)piperidin-1-yl]-4-fluorophenyl}sulfamoyl)-N,N-dimethylbenzene-1-sulfonoimidamide] and CN(C)S(=N)(=O)c1ccc(S(=O)(=O)Nc2cc(F)ccc2N2CCC(c3c(F)cccc3F)CC2)cc1 (centres unmarked) [Compound A-228, 4-({2-[4-(2,6-difluorophenyl)piperidin-1-yl]-5-fluorophenyl}sulfamoyl)-N,N-dimethylbenzene-1-sulfonoimidamide] cannot be ordered by AC50: no more than 2000 nM for the first, no more than 2000 nM for the second.

C=CP(=O)(C=C)c1ccccc1NS(=O)(=O)c1ccc(S(=O)(=O)N(C)C)cc1 [Compound A-227, N1-(2-(divinylphosphoryl)phenyl)-N4,N4-dimethylbenzene-1,4-disulfonamide] and CN(C)S(=O)(=O)c1ccc(S(=O)(=O)Nc2ccccc2N2CCP(=O)(c3ccc(F)cc3)CC2)cc1 [Compound A-232, N4-{2-[4-(4-fluorophenyl)-4-oxo-1,4λ^5-azaphosphinan-1-yl]phenyl}-N1,N1-dimethylbenzene-1,4-disulfonamide] cannot be ordered by AC50: no less than 10000 nM for the first, no less than 10000 nM for the second.

CN(C)CC1(c2ccc(F)cc2)CCN(c2ccccc2NS(=O)(=O)c2ccc(S(=O)(=O)N(C)C)cc2)CC1 [Compound A-231, N4-(2-{4-[(dimethylamino)methyl]-4-(4-fluorophenyl)piperidin-1-yl}phenyl)-N1,N1-dimethylbenzene-1,4-disulfonamide] and Cc1ccc(S(=O)(=O)Nc2ccccc2N2CCC3(CC2)CN(C)c2cc(F)ccc23)cc1 [Compound A-245, N-(2-{6-fluoro-1-methyl-1,2-dihydrospiro[indole-3,4′-piperidin]-1′-yl}phenyl)-4-methylbenzene-1-sulfonamide] cannot be ordered by AC50: no more than 2000 nM for the first, no more than 2000 nM for the second.
